# Experimental data taken from publication PMC7164518 (Science (New York, N.y.), 2020).
# Like-named read-outs stand apart in the source and are kept apart here.
# What was measured:
# [1] = system: enteroviruses; conditions: various cell lines; cited from earlier work
# [2] = Thermodynamic solubility; format: physicochemical; conditions: thermodynamic from solid
# [3] = system: Middle East respiratory syndrome–coronavirus (MERS-CoV); conditions: Huh7 cells; read-out: EC50 against MERS-CoV; cited from earlier work
# [4] = In vitro kinetic plasma solubility; format: physicochemical; conditions: plasma or biological fluid, kinetic from dmso stock
# [5] = Binding to mouse plasma protein; format: in vitro ADME
# [6] = Pharmacokinetics in CD-1 mice, subcutaneous route; format: in vivo; conditions: for half-life / Cmax / MRT: plasma
# [7] = system: SARS-CoV; conditions: various cell lines; cited from earlier work
# [8] = human microsomes
# [9] = in vitro; conditions: mouse, microsomes
# [10] = in vitro; conditions: human, microsomes
# [11] = system: SARS-CoV-2; assay: SARS-CoV-2 replication in human Calu-3 lung cells (viral RNA by qPCR); format: cell-based; conditions: MOI 0.05
# Procedure: (A) Calu-3 cells were infected with SARS-CoV-2 using a multiplicity of infection (MOI) of 0.05. […] DMSO was used as vehicle control (black bar). Total RNA was isolated from cell lysates, and viral RNA content was analyzed by quantitative polymerase chain reaction. Data are means ± SD of two biological experiments with two technical replicates each.
# [12] = Binding to human plasma proteins; format: in vitro ADME
# [13] = system: SARS-CoV replicon; assay: microbe, parasite or virus in culture; format: cell-based; conditions: Severe acute respiratory syndrome coronavirus, read-out: EC50 inhibition of RNA replication in SARS-CoV replicon
# [14] = in vivo; conditions: CD-1, mouse, lung, inhaled, 3 mg kg^−1
# [15] = target: MERS-CoV M^pro (Middle East respiratory syndrome-related coronavirus, UniProt K9N7C7); assay: biochemical
# [16] = target: SARS-CoV-2 M^pro (Severe acute respiratory syndrome coronavirus 2, UniProt P0DTD1); assay: Inhibition of purified recombinant SARS-CoV-2 Mpro; format: biochemical; conditions: 14b relative to 13b
# MERS-CoV M^pro, sequence (K9N7C7 3248-3553 limits assumed): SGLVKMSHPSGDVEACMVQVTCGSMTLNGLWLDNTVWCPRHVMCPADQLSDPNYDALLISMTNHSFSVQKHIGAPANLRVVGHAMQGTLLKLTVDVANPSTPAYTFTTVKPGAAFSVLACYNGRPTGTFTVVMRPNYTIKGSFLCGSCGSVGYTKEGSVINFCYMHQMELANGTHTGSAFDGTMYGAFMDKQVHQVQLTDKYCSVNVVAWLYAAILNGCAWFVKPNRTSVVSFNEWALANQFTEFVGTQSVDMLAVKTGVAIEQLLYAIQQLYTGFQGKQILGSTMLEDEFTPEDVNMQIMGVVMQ
structure (smiles),measurement,setting,value
"O=C(/C=C/c1ccccc1)N[C@@H](CC1CCCCC1)C(=O)N[C@@H](C[C@@H]1CCNC1=O)C(=O)C(=O)NCc1ccccc1 [Compound 11r, reference compound]",EC50 values against a whole range of enteroviruses,[1],low-μM
same,solubility thermodynamic,[2],41 µM
same,EC50,[3],0.4 nM
same,solubility kinetic,[4],6 µM
same,binding to mouse plasma protein,[5],99%
same,half-life,"[6]; CD-1, mouse, mice",18 min
same,EC50 values against SARS-CoV,[7],low-μM
"CC(C)(C)OC(=O)Nc1cccn([C@@H](CC2CCCCC2)C(=O)N[C@@H](C[C@@H]2CCNC2=O)C(=O)C(=O)NC2CC2)c1=O [Compound 13a, tert-butyl (1-((S)-3-cyclohexyl-1-(((S)-4-(cyclopropylamino)-3,4-dioxo-1-((S)-2-oxopyrrolidin-3-yl)butan-2-yl)amino)-1-oxopropan-2-yl)-2-oxo-1,2-dihydropyridin-3-yl)carbamate]",solubility thermodynamic,[2],530 µM
same,solubility kinetic,[4],112 µM
same,binding to mouse plasma protein,[5],97%
same,half-life,"[6]; CD-1, mouse, mice",60 min
same,time compound stayed in plasma,"[6]; CD-1 mice, 20 mg/kg",up to 4 hours
same,time compound was excreted via urine,"[6]; CD-1 mice, 20 mg/kg",up to 24 hours
same,concentration at 24 hours,"[6]; mouse, bronchio-alveolar lavage fluid (BALF), sc, CD-1 mice, 20 mg/kg, read-out: concentration in bronchio-alveolar lavage fluid (BALF) at 24 hours",52.7 ng/mL
same,concentration at 24 hours,"[6]; mouse, lung, sc, CD-1 mice, 20 mg/kg, read-out: concentration in lung tissue at 24 hours",135 ng/g
same,Cmax,"[6]; mouse, sc, CD-1 mice, 20 mg/kg, read-out: maximum plasma concentration (Cmax)",334 ng/mL
same,MRT,"[6]; mouse, sc, CD-1 mice, 20 mg/kg, read-out: mean residence time",~1.6 h
same,residual compound remaining metabolically stable after 30 min,[8],~60%
same,microsomal CLint,[9],32 µL/min/mg
same,microsomal CLint,[10],21 µL/min/mg
CC(C)(C)OC(=O)Nc1cccn([C@@H](CC2CC2)C(=O)N[C@@H](C[C@@H]2CCNC2=O)C(=O)C(=O)NCc2ccccc2)c1=O [Compound 13b],EC50,"[11]; Severe acute respiratory syndrome coronavirus 2, Calu-3, viral RNA by qPCR, read-out: EC50 in human Calu-3 cells infected with SARS-CoV-2",4 to 5 µM
same,Cmax as percent of the Cmax detected for 13a,[6]; 13b 3 mg kg^−1 vs 13a 20 mg/kg,around 37%
same,concentration at 4 hours,"[6]; mouse, lung, sc, CD-1 mice, 3 mg kg^−1, 4 hours, read-out: lung tissue level after 4 hours",~13 ng/g
same,half-life,"[6]; mouse, sc, CD-1 mice, 3 mg kg^−1",108 min
same,Cmax,"[6]; mouse, sc, CD-1 mice, 3 mg kg^−1, read-out: maximum plasma concentration (Cmax)",126 ng/mL
same,MRT,"[6]; mouse, sc, CD-1 mice, 3 mg kg^−1, read-out: mean residence time",2.7 h
same,binding to human plasma proteins,[12],90%
same,EC50,[13],1750 ± 250 nM
same,concentration at 24 hours,[14],33 ng/g
same,IC50,[15],580 ± 220 nM
Nc1cccn([C@@H](CC2CC2)C(=O)N[C@@H](C[C@@H]2CCNC2=O)C(=O)C(=O)NCc2ccccc2)c1=O [Compound 14b],activity in human Calu-3 cells infected with SARS-CoV-2,"[11]; 5, 10, 20 or 40 μM",almost inactive
same,weakening of inhibitory potency on removing the Boc group (factor),[16],~ 2
